Source: patent US6239128A, “Indole-2,3-dione-3-oxime derivatives for therapeutic use” (Neurosearch A/S, priority 1998, dated 2001)

Molecular target: AMPA receptor
Experiment: in vitro receptor affinity test: inhibition of specific binding of ^3 H-AMPA
Design: species or system male Wistar rats (cerebral cortex)
Conditions: rat cerebral cortex membranes; ^3 H-AMPA 5 nM; 30 minutes at 2° C.; 30 mM Tris-HCl, 2.5 mM CaCl2, 100 mM KSCN, pH 7.4; read-out: IC50 (the concentration (μM) of the test substance which inhibits the specific binding of ^3 H-AMPA by 50%)
Source text: In an in vitro activity (receptor affinity) test, the chemical compounds of the present invention have been tested for their affinity for the AMPA receptor.
L-glutamate (GLU) is the major excitatory neurotransmitter in the mammalian central nervous system. From electro-physiological- and binding studies, there appear to be at least three subtypes of GLU receptors, tentatively named N-methyl-D-aspartate (NMDA) receptors, quisqualate receptors and kainate receptors. AMPA has been known for several years to be a potent and selective agonist at the traditionally named quisqualate receptors. Activation of quisqualate receptors by AMPA is associated with Na^+ influx and K^+ efflux leading to depolarisation. ^3 H-AMPA is a selective radioligand for labelling the ionotropic quisqualate (AMPA) receptors.
Preparations are performed at 0-4° C. unless otherwise indicated. Cerebral cortex from male Wistar rats (150-200 g) is homogenised for 5-10 sec in 20 ml Tris-HCl (30 mM, pH 7.4) using an Ultra-Turrax™ homogeniser. The suspension is centrifuged at 27,000×g for 15 minutes and the pellet is washed three times with buffer (centrifuged at 27,000×g for 10 minutes). The washed pellet is homogenised in 20 ml of buffer and incubated on a water bath (of 37° C) for 30 minutes to remove endogenous glutamate and then centrifuged for 10 minutes at 27,000×g. The pellet is then homogenised in buffer and centrifuged at for 10 minutes at 27,000×g. The final pellet is resuspended in 30 ml buffer and the preparation is frozen and stored at -20° C.
The membrane preparation is thawed and centrifuged at 2° C. for 10 minutes at 27,000×g. […] Non-specific binding is determined using L-glutamate (0.6 mM, final concentration).
After incubation the 550 μl samples are added 5 ml of ice-cold buffer and poured directly onto Whatman™ GF/C glass fibre filters under suction and immediately washed with 5 ml of ice-cold buffer. […] The amount of radioactivity on the filters is determined by conventional liquid scintillation counting. […]

Row | IC50 [µM] | SMILES
1 | 0.15 | CN1CCc2c(-c3ccc(S(=O)(=O)N(C)C)cc3)cc3c(c2C1)NC(=O)C3=NOC1CCOC1=O (stereo not drawn) [8-methyl-5-(4-(N,N-dimethylsulfamoyl)phenyl)-6-7-8-9-tetrahydro-1H-pyrrolo[3,2-h]-isoquinoline-2,3-dione-3-O-(3-(2-oxo)tetrahydrofuryl)oxime]
2 | 0.05 | CN1CCc2c(-c3ccc(S(=O)(=O)N(C)C)cc3)cc3c(c2C1)NC(=O)C3=NOC(CCO)C(=O)O (stereo not drawn) [8-methyl-5-(4-(N,N-dimethylsulfamoyl)phenyl)-6-7-8-9-tetrahydro-1H-pyrrolo[3,2-h]isoquinoline-2,3-dione-3-O-(4-hydroxybutyric acid-2-yl)oxime]
3 | 0.1 | CCOC(=O)CON=C1C(=O)Nc2c1cc(-c1ccc(S(=O)(=O)N(C)C)cc1)c1c2CN(C)CC1 [8-methyl-5-(4-(N,N-dimethylsulphamoyl)phenyl-6,7,8,9-tetrahydro-1H-pyrrolo[3,2-h]isoquinoline-2,3-dione-3-O-(ethoxycarbonylmethyl)oxime]
